In the supplement of paper PMC10733146:

Tests used:
Assay in all cases: viability relative to DMSO control (fraction); higher = less drug effect (more viable cells)
Settings in all cases: 48 h
ONO-4059 = compound: CC#CC(=O)N1CC[C@@H](n2c(=O)n(-c3ccc(Oc4ccccc4)cc3)c3c(N)ncnc32)C1 [ONO-4059]
Procedure, shortened: (§1)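 Viability was measured as CellTiter-Glo luminescence relative to the median of 16 inner DMSO wells. Primary mononuclear tumour cells, fresh or cryopreserved, were Ficoll-isolated from blood or bone marrow or taken from processed lymph node. They were seeded at 4 × 10^4 cells per well into 384-well plates holding pre-plated compounds at five concentrations, one well each, and kept in RPMI-1640 with penicillin/streptomycin, L-glutamine and human serum at 37 °C and 5% CO2 for 48 h.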

ERK5-IN-1 = compound: CCOc1cc(C(=O)N2CCC(N3CCN(C)CC3)CC2)ccc1Nc1ncc2c(n1)N(C1CCCC1)c1ccccc1C(=O)N2C [ERK5-IN-1]
Procedure, shortened: as §1

BI6727 = compound: CC[C@@H]1C(=O)N(C)c2cnc(Nc3ccc(C(=O)N[C@H]4CC[C@H](N5CCN(CC6CC6)CC5)CC4)cc3OC)nc2N1C(C)C [BI6727]
Procedure, shortened: as §1

Obatoclax mesylate = compound: COC1=CC(c2cc3ccccc3[nH]2)=N/C1=C\c1[nH]c(C)cc1C [Obatoclax mesylate]
Procedure, shortened: as §1

[1] = compound: OCc1ccc(-c2ccc(-c3ccc(CO)s3)o2)s1
Procedure, shortened: as §1

Quizartinib = compound: CC(C)(C)c1cc(NC(=O)Nc2ccc(-c3cn4c(n3)sc3cc(OCCN5CCOCC5)ccc34)cc2)no1 [Quizartinib]
Procedure, shortened: as §1

Nilotinib = compound: Cc1cn(-c2cc(NC(=O)c3ccc(C)c(Nc4nccc(-c5cccnc5)n4)c3)cc(C(F)(F)F)c2)cn1 [Nilotinib]
Procedure, shortened: as §1

Birinapant = compound: CC[C@H](NC(=O)[C@H](C)NC)C(=O)N1C[C@@H](O)C[C@H]1Cc1c(-c2[nH]c3cc(F)ccc3c2C[C@@H]2C[C@H](O)CN2C(=O)[C@H](CC)NC(=O)[C@H](C)NC)[nH]c2cc(F)ccc12 [Birinapant]
Procedure, shortened: as §1

[2] = compound: CC(C)(C)OC(=O)Nc1ccc(-c2cc(C(=O)NCCCCCCC(=O)NO)no2)cc1
Procedure, shortened: as §1

TMP269 = compound: O=C(NCC1(c2nc(-c3ccccc3)cs2)CCOCC1)c1cccc(-c2noc(C(F)(F)F)n2)c1 [TMP269]
Procedure, shortened: as §1

EPZ-5676 = compound: CC(C)N(C[C@H]1O[C@@H](n2cnc3c(N)ncnc32)[C@H](O)[C@@H]1O)[C@H]1C[C@@H](CCc2nc3cc(C(C)(C)C)ccc3[nH]2)C1 [EPZ-5676]
Procedure, shortened: as §1

Vorinostat = compound: O=C(CCCCCCC(=O)Nc1ccccc1)NO [Vorinostat]
Procedure, shortened: as §1

Cladribine = compound: Nc1nc(Cl)nc2c1ncn2[C@H]1C[C@H](O)[C@@H](CO)O1 [Cladribine]
Procedure, shortened: as §1

BEZ235 = compound: Cn1c(=O)n(-c2ccc(C(C)(C)C#N)cc2)c2c3cc(-c4cnc5ccccc5c4)ccc3ncc21 [BEZ235]
Procedure, shortened: as §1

MLN-120B = compound: COc1c(Cl)cc2c([nH]c3cnccc32)c1NC(=O)c1cccnc1C [MLN-120B]
Procedure, shortened: as §1

With primary MCL patient cells (S068) as the test system, how does the viability (ONO-4059; 0.0016 µM) read?
The viability was 0.759.

What about the viability (ONO-4059; 0.008 µM) of the same test system?
The viability was 0.715.

What about the viability (ONO-4059; 0.04 µM) of the same test system?
The viability was 0.692.

What about the viability (ONO-4059; 0.2 µM) of the same test system?
Its viability is 0.665.

And the viability (ONO-4059; 1 µM)?
Its viability is 0.717.

What about the viability (ERK5-IN-1; 0.024 µM) of the same test system?
Its viability is 0.883.

And the viability (ERK5-IN-1; 0.12 µM)?
The viability was 0.815.

And the viability (ERK5-IN-1; 0.6 µM)?
Its viability is 0.478.

And the viability (ERK5-IN-1; 3 µM)?
Its viability is 0.269.

What about the viability (ERK5-IN-1; 15 µM) of the same test system?
Its viability is 0.181.

What about the viability (BI6727; 0.024 µM) of the same test system?
Its viability is 0.881.

What about the viability (BI6727; 0.12 µM) of the same test system?
The viability was 0.771.

And the viability (BI6727; 0.6 µM)?
The viability was 0.403.

And the viability (BI6727; 3 µM)?
Its viability is 0.219.

And the viability (BI6727; 15 µM)?
Its viability is 0.13.

What about the viability (Obatoclax mesylate; 0.024 µM) of the same test system?
Its viability is 1.07.

What about the viability (Obatoclax mesylate; 0.12 µM) of the same test system?
The viability was 2.64.

What about the viability (Obatoclax mesylate; 0.6 µM) of the same test system?
The viability was 5.84.

And the viability (Obatoclax mesylate; 3 µM)?
The viability was 4.5.

And the viability (Obatoclax mesylate; 15 µM)?
Its viability is 1.46.

What about the viability ([1]; 0.024 µM) of the same test system?
The viability was 0.705.

What about the viability ([1]; 0.12 µM) of the same test system?
Its viability is 0.693.

And the viability ([1]; 0.6 µM)?
Its viability is 0.701.

What about the viability ([1]; 3 µM) of the same test system?
The viability was 0.743.

What about the viability ([1]; 15 µM) of the same test system?
Its viability is 0.348.

What about the viability (Quizartinib; 0.016 µM) of the same test system?
Its viability is 1.08.

And the viability (Quizartinib; 0.08 µM)?
The viability was 1.17.

What about the viability (Quizartinib; 0.4 µM) of the same test system?
Its viability is 1.23.

What about the viability (Quizartinib; 2 µM) of the same test system?
Its viability is 1.39.

And the viability (Quizartinib; 10 µM)?
Its viability is 1.51.

And the viability (Nilotinib; 0.016 µM)?
The viability was 1.16.

What about the viability (Nilotinib; 0.08 µM) of the same test system?
The viability was 1.08.

What about the viability (Nilotinib; 0.4 µM) of the same test system?
Its viability is 1.14.

What about the viability (Nilotinib; 2 µM) of the same test system?
The viability was 1.09.

What about the viability (Nilotinib; 10 µM) of the same test system?
The viability was 1.27.

And the viability (Birinapant; 0.0008 µM)?
The viability was 0.868.

And the viability (Birinapant; 0.004 µM)?
Its viability is 0.758.

What about the viability (Birinapant; 0.02 µM) of the same test system?
Its viability is 0.663.

And the viability (Birinapant; 0.1 µM)?
The viability was 0.55.

And the viability (Birinapant; 0.5 µM)?
The viability was 0.489.

And the viability ([2]; 0.024 µM)?
The viability was 0.812.

What about the viability ([2]; 0.12 µM) of the same test system?
The viability was 0.533.

What about the viability ([2]; 0.6 µM) of the same test system?
The viability was 0.216.

And the viability ([2]; 3 µM)?
The viability was 0.115.

And the viability ([2]; 15 µM)?
Its viability is 0.0907.

What about the viability (TMP269; 0.024 µM) of the same test system?
The viability was 0.882.

What about the viability (TMP269; 0.12 µM) of the same test system?
The viability was 0.943.

And the viability (TMP269; 0.6 µM)?
Its viability is 0.894.

What about the viability (TMP269; 3 µM) of the same test system?
The viability was 1.01.

And the viability (TMP269; 15 µM)?
The viability was 1.24.

And the viability (EPZ-5676; 0.0032 µM)?
The viability was 0.98.

What about the viability (EPZ-5676; 0.016 µM) of the same test system?
Its viability is 1.16.

What about the viability (EPZ-5676; 0.08 µM) of the same test system?
Its viability is 1.02.

And the viability (EPZ-5676; 0.4 µM)?
Its viability is 1.05.

What about the viability (EPZ-5676; 2 µM) of the same test system?
The viability was 1.07.

What about the viability (Vorinostat; 0.016 µM) of the same test system?
Its viability is 1.1.

And the viability (Vorinostat; 0.08 µM)?
Its viability is 1.04.

What about the viability (Vorinostat; 0.4 µM) of the same test system?
The viability was 0.459.

And the viability (Vorinostat; 2 µM)?
Its viability is 0.167.

What about the viability (Vorinostat; 10 µM) of the same test system?
Its viability is 0.121.

What about the viability (Cladribine; 0.024 µM) of the same test system?
The viability was 0.741.

And the viability (Cladribine; 0.12 µM)?
The viability was 0.376.

And the viability (Cladribine; 0.6 µM)?
The viability was 0.233.

And the viability (Cladribine; 3 µM)?
Its viability is 0.161.

What about the viability (Cladribine; 15 µM) of the same test system?
Its viability is 0.175.

And the viability (BEZ235; 0.024 µM)?
Its viability is 1.1.

And the viability (BEZ235; 0.12 µM)?
Its viability is 1.25.

And the viability (BEZ235; 0.6 µM)?
Its viability is 1.16.

And the viability (BEZ235; 3 µM)?
Its viability is 1.45.

What about the viability (BEZ235; 15 µM) of the same test system?
The viability was 0.982.

What about the viability (MLN-120B; 0.024 µM) of the same test system?
Its viability is 0.885.

And the viability (MLN-120B; 0.12 µM)?
The viability was 0.872.

What about the viability (MLN-120B; 0.6 µM) of the same test system?
Its viability is 0.853.

And the viability (MLN-120B; 3 µM)?
The viability was 0.751.

What about the viability (MLN-120B; 15 µM) of the same test system?
Its viability is 0.593.

What does the source list for primary T-PLL patient cells (S008)?
viability (ONO-4059; 0.0016 µM): 1.02; viability (ONO-4059; 0.008 µM): 1; viability (ONO-4059; 0.04 µM): 1.03; viability (ONO-4059; 0.2 µM): 1.03; viability (ONO-4059; 1 µM): 1.06; viability (ERK5-IN-1; 0.024 µM): 0.932; viability (ERK5-IN-1; 0.12 µM): 0.957; viability (ERK5-IN-1; 0.6 µM): 0.985; viability (ERK5-IN-1; 3 µM): 0.958; viability (ERK5-IN-1; 15 µM): 0.754; viability (BI6727; 0.024 µM): 0.979; viability (BI6727; 0.12 µM): 0.921; viability (BI6727; 0.6 µM): 0.934; viability (BI6727; 3 µM): 0.899; viability (BI6727; 15 µM): 0.746; viability (Obatoclax mesylate; 0.024 µM): 1.02; viability (Obatoclax mesylate; 0.12 µM): 0.899; viability (Obatoclax mesylate; 0.6 µM): 0.718; viability (Obatoclax mesylate; 3 µM): 0.563; viability (Obatoclax mesylate; 15 µM): 0.175; viability ([1]; 0.024 µM): 0.894; viability ([1]; 0.12 µM): 0.961; viability ([1]; 0.6 µM): 0.855; viability ([1]; 3 µM): 0.776; viability ([1]; 15 µM): 0.246; viability (Quizartinib; 0.016 µM): 0.99; viability (Quizartinib; 0.08 µM): 0.953; viability (Quizartinib; 0.4 µM): 0.986; viability (Quizartinib; 2 µM): 1.03; viability (Quizartinib; 10 µM): 1.02; viability (Nilotinib; 0.016 µM): 1.09; viability (Nilotinib; 0.08 µM): 1.02; viability (Nilotinib; 0.4 µM): 1.11; viability (Nilotinib; 2 µM): 1.01; viability (Nilotinib; 10 µM): 1.06; viability (Birinapant; 0.0008 µM): 0.887; viability (Birinapant; 0.004 µM): 0.915; viability (Birinapant; 0.02 µM): 0.925; viability (Birinapant; 0.1 µM): 0.897; viability (Birinapant; 0.5 µM): 0.91; viability ([2]; 0.024 µM): 0.97; viability ([2]; 0.12 µM): 0.973; viability ([2]; 0.6 µM): 1.01; viability ([2]; 3 µM): 0.848; viability ([2]; 15 µM): 0.704; viability (TMP269; 0.024 µM): 1.04; viability (TMP269; 0.12 µM): 1.01; viability (TMP269; 0.6 µM): 1.01; viability (TMP269; 3 µM): 1.01; viability (TMP269; 15 µM): 0.947; viability (EPZ-5676; 0.0032 µM): 0.902; viability (EPZ-5676; 0.016 µM): 0.963; viability (EPZ-5676; 0.08 µM): 0.917; viability (EPZ-5676; 0.4 µM): 0.95; viability (EPZ-5676; 2 µM): 1; viability (Vorinostat; 0.016 µM): 1.01; viability (Vorinostat; 0.08 µM): 0.989; viability (Vorinostat; 0.4 µM): 1.07; viability (Vorinostat; 2 µM): 0.984; viability (Vorinostat; 10 µM): 0.851; viability (Cladribine; 0.024 µM): 0.925; viability (Cladribine; 0.12 µM): 0.774; viability (Cladribine; 0.6 µM): 0.489; viability (Cladribine; 3 µM): 0.407; viability (Cladribine; 15 µM): 0.363; viability (BEZ235; 0.024 µM): 0.969; viability (BEZ235; 0.12 µM): 0.967; viability (BEZ235; 0.6 µM): 0.927; viability (BEZ235; 3 µM): 0.941; viability (BEZ235; 15 µM): 0.308; viability (MLN-120B; 0.024 µM): 1.03; viability (MLN-120B; 0.12 µM): 1.01; viability (MLN-120B; 0.6 µM): 1.03; viability (MLN-120B; 3 µM): 1; viability (MLN-120B; 15 µM): 0.963
